From ChEMBL document CHEMBL1126797 (J Med Chem, 1993) come the findings set out here.

The IC50 is the concentration needed to halve the response being measured. A higher IC50 goes with weaker potency.

Data set [1] has as its system Mus musculus. Description: Highest active dose in L1210 lymphoid leukemic mice at dose of 2-4.5 mg/kg. Format: functional.
For data set [2], the species on record is Mus musculus. In words: Percent median survival time of treated leukemic mice compared to control. It counts as functional.
Data set [3] relates to L1210. Description: Log of initial tumor cell population minus log of tumor cell population at end of treatment in L1210 lymphoid leukemic mice. It counts as functional, Mus musculus.
For data set [4], the species on record is Mus musculus. Description: Number of L1210 lymphoid leukemic mice cured out of […]. It counts as functional.
Another data set deals with T1, DNA topoisomerase 1 (Homo sapiens, UniProt P11387).
T1 sequence (P11387 whole entry): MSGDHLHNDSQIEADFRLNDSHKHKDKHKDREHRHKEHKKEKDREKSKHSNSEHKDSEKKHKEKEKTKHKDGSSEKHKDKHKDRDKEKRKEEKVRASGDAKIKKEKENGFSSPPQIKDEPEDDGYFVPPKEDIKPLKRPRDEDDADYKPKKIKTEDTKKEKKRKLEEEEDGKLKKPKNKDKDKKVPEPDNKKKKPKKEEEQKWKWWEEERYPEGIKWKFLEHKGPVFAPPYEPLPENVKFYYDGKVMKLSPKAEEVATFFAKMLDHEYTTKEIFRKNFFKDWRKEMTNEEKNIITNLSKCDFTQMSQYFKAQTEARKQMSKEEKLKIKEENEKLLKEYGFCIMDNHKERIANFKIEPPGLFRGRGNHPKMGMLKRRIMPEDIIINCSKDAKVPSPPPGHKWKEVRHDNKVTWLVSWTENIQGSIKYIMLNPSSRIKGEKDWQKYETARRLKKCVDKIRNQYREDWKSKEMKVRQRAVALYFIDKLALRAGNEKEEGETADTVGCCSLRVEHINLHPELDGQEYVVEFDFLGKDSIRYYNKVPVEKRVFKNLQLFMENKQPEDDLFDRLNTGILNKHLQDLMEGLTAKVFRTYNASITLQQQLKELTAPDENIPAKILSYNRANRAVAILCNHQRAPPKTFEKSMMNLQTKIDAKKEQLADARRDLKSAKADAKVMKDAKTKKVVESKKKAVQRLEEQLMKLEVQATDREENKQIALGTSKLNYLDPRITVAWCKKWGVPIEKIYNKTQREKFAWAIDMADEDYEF
Description: Inhibition of Topoisomerase I by cleavage complex formation in human HL-60 cells. It counts as cell-based.

Data set [5] concerns Mus musculus. Description: Highest active dose in L1210 lymphoid leukemic mice at dose range of 2.37-12.00 mg/kg. It counts as functional.
For data set [6], the species on record is Mus musculus. Description: Toxic dose in L1210 lymphoid leukemic mice. Format: toxicity, organism-based. The settings on record: in vivo.
In data set [7] the test system is Mus musculus. In words: Highest active dose in L1210 lymphoid leukemic mice at range of 1.25-20 mg/kg. Format: functional.
Data set [8] has as its system Mus musculus. In words: Highest active dose in L1210 lymphoid leukemic mice at dose range of 2.5-20 mg/kg after i.v. drug dosing on hours 1 and 5. Format: functional.
Data set [9] concerns L1210. Description: Log of initial tumor cell population minus log of tumor cell population at end of treatment after i.v. drug dosing on hours 1 and 5. It counts as functional, Mus musculus.
For data set [10], the system named is Mus musculus. Description: Toxic dose in L1210 lymphoid leukemic mice at dose of 20 mg/kg after i.v. drug dosing on hours 1 and 5; NT means not toxic. Format: toxicity, organism-based. More on the design: dose 20 mg/kg, route intravenous. The conditions noted are these: in vivo, iv.
The subject of data set [11] is Mus musculus. Description: Median survival time of treated/control L1210 leukemic mice after i.v. drug dosing on hours 1 and 5. It counts as functional.
The test system of data set [12] is Mus musculus. In words: Number of L1210 mice cured after i.v. drug dosing on hours 1 and 5. It counts as functional.
The nature of data set [13]: Number of metastases in K1735-M2 murine melanoma cells after subcutaneous administration on days1,4,6,8 at dose of 6 mg/kg. Format: functional, Mus musculus.
Data set [14] relates to Mus musculus. In words: Relative survival in L1210 lymphoid leukemic mice after subcutaneous administration on days1,4,6,8 at dose of 6 mg/kg. It counts as functional.
Data set [15] concerns Mus musculus. Description: Relative survival in RAW117-H10 cells implanted mice in comparison to control at dose of 6 mg/kg. Format: functional.
Data set [16] deals with Mus musculus. In words: Highest active dose in L1210 lymphoid leukemic mice at range of 3.63-15.5 mg/kg. It counts as functional.
The test system of data set [17] is Mus musculus. Description: Highest active dose in L1210 lymphoid leukemic mice at range of 1.35-3.74 mg/kg. It counts as functional.
Data set [18] has as its system Mus musculus. Description: Highest active dose in L1210 lymphoid leukemic mice at range of 10-80 mg/kg. It counts as functional.

Regarding `CC[C@@]1(O)C(=O)OCc2c1cc1n(c2=O)Cc2cc3cc(N)ccc3nc2-1`, the Highest active dose in the data set with Mus musculus [1] worked out at 4.5 mg/kg. The compound further displayed a T/C in the data set filed under Mus musculus [2] of 565%. The same compound registered a KE in the data set with L1210 [3] of over 5.99. In the data set listed under Mus musculus [4], the Cures is 6. Besides, at DNA topoisomerase 1, the IC50 amounted to 0.14 µM.

Take `CC[C@@]1(O)C(=O)OCc2c1cc1n(c2=O)Cc2cc3c(Cl)cccc3nc2-1`: the Highest active dose in the data set on Mus musculus [5] was 12 mg/kg. The T/C in the data set filed under Mus musculus [2] was 150%. Besides, the KE in the data set with L1210 [3] was 0. In the data set filed under Mus musculus [4], the Cures turned out to be 0. The compound further showed an IC50 on DNA topoisomerase 1 of 0.086 µM.

For `CCC1(O)C(=O)OCc2c1cc1n(c2=O)Cc2cc3c([N+](=O)[O-])cccc3nc2-1` (centres undefined), in the data set listed under Mus musculus [6], the Toxic dose worked out at 40 mg/kg. The compound further displayed a T/C in the data set listed under Mus musculus [2] of 348%. Besides, the KE in the data set on L1210 [3] stood at 5.97. The compound further yielded a Cures in the data set listed under Mus musculus [4] of 5. In the data set on Mus musculus [7], this compound yielded a Highest active dose of 10 mg/kg.

`CCC(O)(C(=O)[O-])c1cc2n(c(=O)c1CO)Cc1cc3cc([O-])ccc3nc1-2.[Na+].[Na+]` (centres undefined): the Highest active dose in the data set on Mus musculus [8] came out at 20 mg/kg. In the data set with L1210 [9], the KE is 3.24. For the same compound, the Toxic dose entry in the data set on Mus musculus [10] is on record as “Non-toxic”. Further, the T/C with Mus musculus [11] came to 184%. This compound displayed a Cures in the data set on Mus musculus [12] of 0. Moreover, on DNA topoisomerase 1, the IC50 was 3.2 µM.

Compound `CCC(O)(C(=O)[O-])c1cc2n(c(=O)c1CO)Cc1cc3c(N)c4c(cc3nc1-2)OCO4.[Na+]` (racemic) showed a Control in [13] of 98%. The T/C is 1.78 in the data set with Mus musculus [14] and 1.4 in the data set on Mus musculus [15]. The IC50 at DNA topoisomerase 1 was 5.5 µM.

The compound `CCC1(O)C(=O)OCc2c1cc1n(c2=O)Cc2cc3cc([N+](=O)[O-])ccc3nc2-1` (racemic) returned a Toxic dose in the data set filed under Mus musculus [6] of 31 mg/kg. This compound also showed a T/C in the data set filed under Mus musculus [2] of 233%. In the data set on L1210 [3], this compound showed a KE of 5.97. The compound also returned a Cures in the data set filed under Mus musculus [4] of 0. In the data set on Mus musculus [16], this compound came in with a Highest active dose of 7.25 mg/kg.

In the case of `CCC1(O)C(=O)OCc2c1cc1n(c2=O)Cc2cc3cc(N)ccc3nc2-1` (racemic), in the data set listed under Mus musculus [6], the Toxic dose was 6.25 mg/kg. Besides, the Highest active dose with Mus musculus [17] came to 3.75 mg/kg. The compound also came in with a T/C in the data set listed under Mus musculus [2] of 365%. Further, the KE in the data set on L1210 [3] was determined as 5.97. This compound showed a Cures in the data set listed under Mus musculus [4] of 3.

In the data set with Mus musculus [18], `CCC1(O)C(=O)OCc2c1cc1n(c2=O)Cc2cc3cc(C)ccc3nc2-1` (racemic) gave a Highest active dose of 10 mg/kg. In the data set listed under Mus musculus [2], this compound came in with a T/C of 207%. Moreover, the KE with L1210 [3] is 4.66. Also, in the data set filed under Mus musculus [4], the Cures was determined as 0.
